In US11708319B2, “Biphenyl amides with modified ether groups as HSP90 inhibitors and HSP70 inducers” (THE UNIVERSITY OF KANSAS, priority 2014, dated 2023):
“Also recorded” adds a separate entry of the source.

Columns and labels:
[1] = system: Hsp70 promoter (1.5 kb region upstream of the start codon of the human HSPA1A gene) in 50B11 cells; assay: Luciferase reporter assay assessing Hsp70 induction; format: cell-based; conditions: for Hsp70 induction (luciferase), Mean: 50B11 cells treated 16 hrs, DMSO (negative control) assigned a value of 100
Description: The luciferase reporter assay was performed using a 1.5 kb region upstream of the start codon of the human HSPA1A gene to drive luciferase expression as previously described. 50B11 cells (Chen, et al., 2007) were grown in 10 cm dishes in maintenance medium and the cells were transfected using lipofectamine. Twenty four hour after transfection, the cells were re-seeded into 24 well plates at a density of 2×10^5 cells per well. After a 6 hrs period to permit attachment, the cells were treated with the indicated compounds for 16 hrs. Luciferase activity was assessed and normalized to the total protein concentration of each well.

[2] = system: Hsp70 protein expression in 50B11 cells; assay: Immunoblot analysis of Hsp70 protein expression; format: cell-based; conditions: 24 hr, 1 μM, FIGS. 3A & 3B
Description: FIGS. 3A & 3B show the induction of Hsp70 protein expression by some of the compounds described herein. […] In the immunoblot analysis, 50B11 cells were treated for 24 hr with 1 μM of the indicated analogs or 250 nM geldanamycin (GDA) as a positive control. […] Results are mean±standard error of the mean (SEM) (n=6). […] The remaining para-substituted and ortho-substituted compounds were similarly effective.
50B11 cells were treated with the indicated compounds for 24 hrs and were scraped into lysis buffer containing 50 mM Tris-HCl, pH 7.4, 150 mM NaCl, 1 mM EDTA, 1% NP-40, 0.5 mM sodium orthovandate, 40 mM NaF, 10 mM β-glycerophosphate, and Complete Protease Inhibitors (Roche Diagnostics). After 15 minutes on ice, the lysates were sonicated then centrifuged at 10,000×g for 10 min at 4° C. The protein concentration of the supernatant was estimated using a Bio-Rad protein assay and bovine serum albumin as the standard. Following SDS-PAGE, the proteins were transferred to nitrocellulose and the membrane incubated with 5% non-fat dry milk in phosphate buffered saline containing 0.1% Tween 20 (PBST) for 1-2 hrs at room temperature. The blots were probed with primary antibodies recognizing Hsp70 or R-actin at 4° C. overnight. The membranes were washed with PBST and subsequently incubated with HRP-conjugated secondary antibodies and immunoreactive proteins were visualized using chemiluminescence detection (GE Healthcare Life Sciences, Little Chalfont, Buckinghamshire, UK). The films were digitally scanned and densitometrically analyzed using ImageJ (NIH) software. Client protein degradation in MCF7 cells was performed as previously described (Urban, et al., 2010).

50B11 cells = assay: Mitochondrial bioenergetic assessment (XF96 extracellular flux analyzer, OCR and ECAR); format: cell-based; conditions: 24 hrs, FIG. 4
Description: 50B11 cells were treated for 24 hr with DMSO (1), 10 nM (2,6,10), 100 nM (3,7,11), 500 nM (4,8,12) or 1,000 nM (5,9,13) of compounds 74 (2-5), 75 (6-9) or 59 (10-13). Mitochondrial respiration was measured in the intact cells using an XF96 extracellular flux analyzer that provides concurrent measures of mitochondrial oxygen consumption rate (OCR) and extracellular acidification rate (ECAR) as an indication of glycolytic activity. Results are plotted OCR versus ECAR. The net effect of the drugs on oxidative phosphorylation and glycolysis is indicated in each quadrant. Results are mean±standard error of the mean (SEM) (n=6).
Oxygen consumption rate (OCR) was assessed in the 50B11 transformed sensory neuron cell line, using an XF96 Extracellular Flux Analyzer (Seahorse Biosciences, North Billerica, Mass.). 50B11 cells were seeded into the 96 well plates at 40,000 cells per well and maintained in high glucose DMEM supplemented with 10% fetal bovine serum (Atlas Biologics, Fort Collins Colo.), 5 μg/ml blasticidin and antibiotics at 37° C. The maintenance media was changed to serum free unbuffered DMEM supplemented with 1 mM pyruvate and 5.5 mM D-glucose and the cells incubated at 37° C. in room air for one hour before starting the assay. After introducing the plate into the XF96 analyzer, the basal oxygen consumption rate (OCR) was measured prior to the addition of 1 μg/ml oligomycin to inhibit the ATP synthase to measure the portion of the basal OCR that was coupled to ATP synthesis; residual OCR after oligomycin treatment is from uncoupled respiration (proton leak). […]
After the respiratory measures, the cells were harvested and the protein content of each well determined using a Bradford protein assay. OCR values were normalized to the total protein content of each well and ATP-linked respiration, proton leak, maximal respiratory capacity, spare respiratory capacity and respiratory control ratio were determined as described (Brand and Nicholls, 2011; Chowdhury, et al., 2012)

[3] = molecular target: Hsp90 C-terminus nucleotide binding pocket; conditions: low affinity; cited from earlier work
[4] = 10 nM to 1,000 nM, FIG. 2, Table 2

## CC(=O)NCCc1ccc(O)cc1-c1cccc(F)c1 [Compound 20]
[1]; [4]
  Hsp70 induction in luciferase assay (in words): inactive
[1]; 10 nM
  Hsp70 induction (luciferase), Mean: 88.07
[1]; 100 nM
  Hsp70 induction (luciferase), Mean: 87.40
[1]; 500 nM
  Hsp70 induction (luciferase), Mean: 93.87
[1]; 1000 nM
  Hsp70 induction (luciferase), Mean: 96.56

## CC(=O)NCCc1ccc(OC2CCC(OCc3ccccc3)CC2)cc1-c1cccc(F)c1 (centres unmarked) [Compound 44, N-(2-(5-((4-(benzyloxy)cyclohexyl)oxy)-3′-fluoro-[1,1′-biphenyl]-2yl)ethyl)acetamide]
[2]
  Hsp70 protein expression (immunoblot, in words): induced Hsp70 protein expression
[1]; 500 nM and 1,000 nM, FIG. 1
  Hsp70 induction in luciferase assay (in words): highest level of Hsp70 expression

## CC(=O)NCCc1ccc(OC2CCC(OCc3ccc(Cl)cc3)CC2)cc1-c1cccc(F)c1 (centres unmarked) [Compound 59, N-(2-(5-((4-((4-chlorobenzyl)oxy)cyclohexyl)oxy)-3′-fluoro-[1,1′-biphenyl]-2-yl)ethyl)acetamide]
50B11 cells
  Cellular respiration (in words): decreased cellular respiration
[2]
  Hsp70 protein expression (immunoblot, in words): less effective
[1]; [4]
  Hsp70 induction in luciferase assay (in words): robust induction of luciferase activity

## CC(=O)NCCc1ccc(OC2C=CC(OCc3ccc(Cl)cc3)CC2)cc1-c1cccc(F)c1 (centres unmarked) [Compound 74]
[2]
  Hsp70 protein expression (immunoblot, in words): equivalent levels of Hsp70 induction

## CC(=O)NCCc1ccc(OC2CCC(OCc3ccc(Cl)cc3)[C@@H](O)[C@H]2O)cc1-c1cccc(F)c1 (stereo partly drawn) [Compound 75, N-(2-(5-(((2R,3S)-4-((4-chlorobenzyl)oxy)-2,3-dihydroxycyclohexyl)oxy)-3′-fluoro-[1,1′-biphenyl]-2-yl)ethyl)acetamide]
50B11 cells; 10 nM to 1,000 nM
  Oxidative phosphorylation and glycolysis (OCR versus ECAR, in words): more effective at dose dependently increasing oxidative phosphorylation and glycolysis
50B11 cells
  Cellular respiration (in words): increased cellular respiration
[2]
  Hsp70 protein expression (immunoblot, in words): equivalent levels of Hsp70 induction; also recorded: increased Hsp70 protein expression
[1]; [4]
  Hsp70 induction in luciferase assay (in words): good induction of Hsp70

## CC(=O)Nc1cc2ccc(OC3CCC(OCc4ccccc4)CC3)c(C)c2oc1=O (centres unmarked) [Compound 77]
[1]; 10 nM
  Hsp70 induction (luciferase), Mean: 146.19
[1]; 100 nM
  Hsp70 induction (luciferase), Mean: 106.40
[1]; 500 nM
  Hsp70 induction (luciferase), Mean: 102.93
[1]; 1000 nM
  Hsp70 induction (luciferase), Mean: 100.29

## CC(=O)Nc1cc2ccc(OC3CCC(OCc4ccc(Cl)cc4)CC3)c(C)c2oc1=O (centres unmarked) [Compound 78]
[1]; 10 nM
  Hsp70 induction (luciferase), Mean: 85.73
[1]; 100 nM
  Hsp70 induction (luciferase), Mean: 94.52
[1]; 500 nM
  Hsp70 induction (luciferase), Mean: 97.39
[1]; 1000 nM
  Hsp70 induction (luciferase), Mean: 105.69

## CC(=O)Nc1cc2ccc(OC3CCC(OCc4ccccc4Br)CC3)c(C)c2oc1=O (centres unmarked) [Compound 79, N-(7-((4-((2-bromobenzyl)oxy)cyclohexyl)oxy)-8-methyl-2-oxo-2H-chromen-3-yl)acetamide]
[1]; 10 nM
  Hsp70 induction (luciferase), Mean: 105.83
[1]; 100 nM
  Hsp70 induction (luciferase), Mean: 102.65
[1]; 500 nM
  Hsp70 induction (luciferase), Mean: 97.09
[1]; 1000 nM
  Hsp70 induction (luciferase), Mean: 91.42

## COc1ccccc1COC1CCC(Oc2ccc3cc(NC(C)=O)c(=O)oc3c2C)CC1 (centres unmarked) [Compound 80, N-(7-((4-((2-methoxybenzyl)oxy)cyclohexyl)oxy)-8-methyl-2-oxo-2H-chromen-3-yl)acetamide]
[1]; 10 nM
  Hsp70 induction (luciferase), Mean: 130.87
[1]; 100 nM
  Hsp70 induction (luciferase), Mean: 151.51
[1]; 500 nM
  Hsp70 induction (luciferase), Mean: 129.16
[1]; 1000 nM
  Hsp70 induction (luciferase), Mean: 142.77

## CO[C@@H]1[C@@H](OC(N)=O)[C@@H](O)[C@H](Oc2ccc3c(O)c(NC(=O)c4ccc(O)c(CC=C(C)C)c4)c(=O)oc3c2C)OC1(C)C [novobiocin]
[3]
  IC50: ~700 µM
